Test results published in PMC4843002, “Identification of pyrazolopyridazinones as PDEδ inhibitors” (Nature Communications, 2016).

Columns and labels:
GABA (non-selective) = assay: Cerep binding, agonist radioligand; details: 5 µM
ETB (h) = target: T1, ETB (h) (Homo sapiens, UniProt P24530); assay: Cerep binding, agonist radioligand; details: read-out: % Inhibition of Control Specific Binding
T1 construct: purchased Eurofins Pharma Discovery Services (CEREP diversity panel)

Panc-Tu-I cells = assay: RTCA growth profile; assay type: cell-based, human
Procedure: RTCA was performed using 16-well E-plates on the Dual Plate xCELLigence instrument (Roche Applied Science, Indianapolis, IN). This system measures a dimensionless parameter called cell index, which evaluates the ionic environment at an electrode/solution interface and integrates information on cell number. Depending on the cell line 5 × 10^3–1 × 10^4 cells were plated in each well of the 16-well plates in 200 μl of cell culture medium. After seeding, cells were allowed to settle for 30 min at room temperature before being inserted into the xCELLigence instrument in a humidified incubator at 37 °C with 10% CO2. For RTCA experiments assaying cells stably expressing the inducible shRNA transgene, cells were seeded onto the E-plates in medium supplemented with 200 ng ml^−1 doxycycline. […] The small-molecule inhibitors were added at indicated time points and in the indicated concentrations. […] All assays were performed in duplicates. The cell index was normalized to 1 at the time point of drug administration.

A2A (h) = target: T2, A2A (h) (Homo sapiens, UniProt P29274); assay: Cerep binding, agonist radioligand; details: read-out: % Inhibition of Control Specific Binding
T2 construct: purchased Eurofins Pharma Discovery Services (CEREP diversity panel)
T2 sequence (P29274 whole entry): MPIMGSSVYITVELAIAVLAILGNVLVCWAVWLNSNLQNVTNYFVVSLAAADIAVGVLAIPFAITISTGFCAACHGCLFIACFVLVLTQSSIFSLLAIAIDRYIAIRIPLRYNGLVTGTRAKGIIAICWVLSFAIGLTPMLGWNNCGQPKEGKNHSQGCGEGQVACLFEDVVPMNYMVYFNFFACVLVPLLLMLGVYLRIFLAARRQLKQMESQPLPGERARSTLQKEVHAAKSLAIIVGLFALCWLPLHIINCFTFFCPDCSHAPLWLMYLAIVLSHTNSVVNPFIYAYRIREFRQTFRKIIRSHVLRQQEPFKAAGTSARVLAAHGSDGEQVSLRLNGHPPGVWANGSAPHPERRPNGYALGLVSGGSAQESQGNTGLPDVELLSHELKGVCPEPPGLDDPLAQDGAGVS

D3 (h) = target: T3, D3 (h) (Homo sapiens, UniProt P35462); assay: Cerep binding, antagonist radioligand; details: read-out: % Inhibition of Control Specific Binding
T3 construct: purchased Eurofins Pharma Discovery Services (CEREP diversity panel)
T3 sequence (P35462 whole entry): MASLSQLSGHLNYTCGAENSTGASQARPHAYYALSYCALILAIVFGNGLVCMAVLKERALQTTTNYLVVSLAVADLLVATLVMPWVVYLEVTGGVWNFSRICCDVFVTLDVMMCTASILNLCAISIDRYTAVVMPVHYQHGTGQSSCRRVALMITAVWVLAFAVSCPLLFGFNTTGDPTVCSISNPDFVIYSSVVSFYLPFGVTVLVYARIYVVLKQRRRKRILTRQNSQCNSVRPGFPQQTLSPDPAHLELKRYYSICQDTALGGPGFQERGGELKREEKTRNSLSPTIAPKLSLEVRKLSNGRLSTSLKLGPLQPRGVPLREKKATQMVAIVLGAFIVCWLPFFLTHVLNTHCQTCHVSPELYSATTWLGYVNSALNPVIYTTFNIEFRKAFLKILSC

D1 (h) = target: T4, D1 (h) (Homo sapiens, UniProt P21728); assay: Cerep binding, antagonist radioligand; details: read-out: % Inhibition of Control Specific Binding
T4 construct: purchased Eurofins Pharma Discovery Services (CEREP diversity panel)

B2 (h) = target: T5, B2 (h) (Homo sapiens, UniProt P30411); assay: Cerep binding, agonist radioligand; details: read-out: % Inhibition of Control Specific Binding
T5 construct: purchased Eurofins Pharma Discovery Services (CEREP diversity panel)

[1] = tested on: sigma (non-selective) (h); assay: Cerep binding, agonist radioligand; set-up: species or system human; details: 5 µM
NMDA = assay: Cerep binding, antagonist radioligand; details: 5 µM
dopamine transporter (h) = target: T6, dopamine transporter (h) (Homo sapiens, UniProt Q01959); assay: Cerep binding, antagonist radioligand; details: read-out: % Inhibition of Control Specific Binding
T6 construct: purchased Eurofins Pharma Discovery Services (CEREP diversity panel)
T6 sequence (Q01959 whole entry): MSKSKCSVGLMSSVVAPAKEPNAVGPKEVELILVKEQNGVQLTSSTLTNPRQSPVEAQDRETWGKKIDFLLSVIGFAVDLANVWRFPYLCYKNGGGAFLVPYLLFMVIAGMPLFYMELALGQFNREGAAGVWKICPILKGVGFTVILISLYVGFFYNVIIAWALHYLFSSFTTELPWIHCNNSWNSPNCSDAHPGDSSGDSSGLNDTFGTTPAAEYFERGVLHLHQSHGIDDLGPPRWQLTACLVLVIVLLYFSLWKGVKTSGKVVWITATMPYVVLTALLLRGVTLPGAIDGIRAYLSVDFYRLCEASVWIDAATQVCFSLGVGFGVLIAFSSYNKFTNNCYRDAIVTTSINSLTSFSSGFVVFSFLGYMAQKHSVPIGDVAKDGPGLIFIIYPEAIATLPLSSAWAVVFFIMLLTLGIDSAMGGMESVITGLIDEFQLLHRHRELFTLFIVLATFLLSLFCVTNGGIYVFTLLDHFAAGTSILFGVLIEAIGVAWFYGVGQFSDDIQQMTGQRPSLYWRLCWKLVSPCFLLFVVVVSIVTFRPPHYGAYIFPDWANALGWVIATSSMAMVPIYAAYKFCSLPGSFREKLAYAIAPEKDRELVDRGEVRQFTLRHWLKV

[2] = tested on: Ca2+ channel (L, verapamil site) (phenylalkylamine); assay: Cerep binding, antagonist radioligand; details: 5 µM
MT1 (ML1A) (h) = target: T7, MT1 (ML1A) (h) (Homo sapiens, UniProt P48039); assay: Cerep binding, agonist radioligand; details: read-out: % Inhibition of Control Specific Binding
T7 construct: purchased Eurofins Pharma Discovery Services (CEREP diversity panel)

GR (h) = target: T8, GR (h) (Homo sapiens, UniProt P04150); assay: Cerep binding, agonist radioligand; details: read-out: % Inhibition of Control Specific Binding
T8 construct: purchased Eurofins Pharma Discovery Services (CEREP diversity panel)
T8 sequence (P04150 whole entry): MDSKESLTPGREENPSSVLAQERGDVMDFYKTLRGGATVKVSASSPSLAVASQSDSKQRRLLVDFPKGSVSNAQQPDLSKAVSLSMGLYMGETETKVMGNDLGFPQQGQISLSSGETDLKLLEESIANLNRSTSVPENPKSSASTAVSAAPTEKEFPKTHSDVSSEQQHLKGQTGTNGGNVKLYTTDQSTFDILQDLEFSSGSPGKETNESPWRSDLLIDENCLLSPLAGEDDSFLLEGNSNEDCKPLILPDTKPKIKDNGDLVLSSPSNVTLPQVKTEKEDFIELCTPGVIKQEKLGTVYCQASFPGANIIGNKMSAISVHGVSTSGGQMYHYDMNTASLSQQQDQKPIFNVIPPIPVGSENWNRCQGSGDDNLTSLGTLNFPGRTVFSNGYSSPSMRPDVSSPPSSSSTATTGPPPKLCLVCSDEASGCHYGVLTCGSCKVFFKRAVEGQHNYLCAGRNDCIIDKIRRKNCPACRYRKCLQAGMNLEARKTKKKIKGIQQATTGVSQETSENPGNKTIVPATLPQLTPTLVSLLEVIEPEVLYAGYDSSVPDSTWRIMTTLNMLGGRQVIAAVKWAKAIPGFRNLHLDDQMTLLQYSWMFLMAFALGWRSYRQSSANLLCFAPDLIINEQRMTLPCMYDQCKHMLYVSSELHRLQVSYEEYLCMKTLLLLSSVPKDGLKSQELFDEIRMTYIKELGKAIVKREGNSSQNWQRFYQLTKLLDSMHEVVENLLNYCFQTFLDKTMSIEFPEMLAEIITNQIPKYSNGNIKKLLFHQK

S6P phosphorylation = assay: western blot, S6P phosphorylation in Panc-Tu-I; details: for EGF-induced S6P phosphorylation: 1 h, 5 μM Deltarasin or 20 μM Deltazinone 1, 5 min EGF
Procedure: To examine whether PDEδ inhibition by Deltarasin and Deltazinone 1 downregulates the signal transduction via these pathways, we examined the phosphorylation of extracellular signal regulated kinase (Erk) and S6 Ribosomal Protein (S6P) in the oncogenic KRas-dependent Panc-Tu-1 and KRas-independent PANC-1 cells. […] Cells were lysed with RIPA-buffer (20 mM Tris pH 7.5, 150 mM NaCl, 0.5 mM Na2 EDTA, 1 % sodium deoxycholate, 0.1% sodium dodecyl sulfate, 1% IGEPAL supplemented with Complete Mini EDTA-free protease inhibitor (Roche Applied Science) and 1% phosphatase inhibitor cocktail 2 and 3 (P5726 and P0044, Sigma Aldrich), scraped off after 5 min on ice and centrifuged at 14,000g for 20 min at 4 °C. SDS–polyacrylamide gel electrophoresis was carried out with 10–25 μg of whole-cell lysate from each sample. The gels were blotted onto polyvinylidene difluoride membrane (Millipore) and blocked for 1 h at room temperature. […] Blots were scanned on a LI-COR Odyssey imaging system.
Western blots were quantified using ImageJ. The background of the blots was subtracted by applying the rolling ball subtraction with a radius of 50 pixels. Afterwards the integrated intensity of the bands was measured.

[3] = target: T9, sirtuin 2 (h) (inhibitor effect) (Homo sapiens, UniProt Q8IXJ6); assay: Cerep enzyme and cell-based assays; assay type: biochemical; details: read-out: % Inhibition of Control Values
T9 construct: Eurofins Pharma Discovery Services (CEREP diversity panel, outsourced assay)
T9 sequence (Q8IXJ6 whole entry): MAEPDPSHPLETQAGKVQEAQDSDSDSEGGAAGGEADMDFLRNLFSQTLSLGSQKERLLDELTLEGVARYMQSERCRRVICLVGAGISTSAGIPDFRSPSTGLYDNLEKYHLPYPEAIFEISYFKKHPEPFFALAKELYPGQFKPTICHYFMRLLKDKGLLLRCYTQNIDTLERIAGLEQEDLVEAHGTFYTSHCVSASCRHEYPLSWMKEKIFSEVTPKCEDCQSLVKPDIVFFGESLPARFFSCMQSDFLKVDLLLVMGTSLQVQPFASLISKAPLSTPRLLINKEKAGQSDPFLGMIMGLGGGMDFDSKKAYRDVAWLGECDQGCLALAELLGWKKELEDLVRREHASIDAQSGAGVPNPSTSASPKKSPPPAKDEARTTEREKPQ

D2S (h) = target: T10, D2S (h) (Homo sapiens, UniProt P14416); assay: Cerep binding, antagonist radioligand; details: read-out: % Inhibition of Control Specific Binding
T10 construct: purchased Eurofins Pharma Discovery Services (CEREP diversity panel)

KV channel = assay: Cerep binding, antagonist radioligand; details: 5 µM
A1 (h) = target: T11, A1 (h) (Homo sapiens, UniProt P30542); assay: Cerep binding, antagonist radioligand; details: read-out: % Inhibition of Control Specific Binding
T11 construct: purchased Eurofins Pharma Discovery Services (CEREP diversity panel)

[4] = target: choline transporter (CHT1) (h) (Homo sapiens, UniProt Q9GZV3); assay: Cerep binding, antagonist radioligand; details: read-out: % Inhibition of Control Specific Binding
Chain of choline transporter (CHT1) (h) (Q9GZV3 whole entry): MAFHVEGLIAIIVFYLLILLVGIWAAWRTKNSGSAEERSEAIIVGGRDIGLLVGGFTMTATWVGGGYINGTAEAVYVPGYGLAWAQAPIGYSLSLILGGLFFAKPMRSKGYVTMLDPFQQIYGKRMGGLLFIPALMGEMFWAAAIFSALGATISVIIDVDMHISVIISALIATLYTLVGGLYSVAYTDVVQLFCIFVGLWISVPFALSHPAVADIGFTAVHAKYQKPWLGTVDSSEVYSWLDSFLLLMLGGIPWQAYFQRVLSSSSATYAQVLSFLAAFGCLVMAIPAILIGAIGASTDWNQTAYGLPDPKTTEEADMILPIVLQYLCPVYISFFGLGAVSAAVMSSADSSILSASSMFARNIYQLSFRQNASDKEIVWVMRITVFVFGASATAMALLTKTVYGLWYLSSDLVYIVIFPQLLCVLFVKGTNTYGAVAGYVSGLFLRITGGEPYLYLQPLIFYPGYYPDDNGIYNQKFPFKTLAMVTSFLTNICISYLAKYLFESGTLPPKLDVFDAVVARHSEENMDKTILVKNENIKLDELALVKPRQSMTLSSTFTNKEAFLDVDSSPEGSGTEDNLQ

ETA (h) = target: T12, ETA (h) (Homo sapiens, UniProt P25101); assay: Cerep binding, agonist radioligand; details: read-out: % Inhibition of Control Specific Binding
T12 construct: purchased Eurofins Pharma Discovery Services (CEREP diversity panel)

M (non-selective) = assay: Cerep binding, antagonist radioligand; details: 5 µM
Na+ channel (site 2) = assay: Cerep binding, antagonist radioligand; details: 5 µM
PR (h) = target: T13, PR (h) (Homo sapiens, UniProt P06401); assay: Cerep binding, agonist radioligand; details: read-out: % Inhibition of Control Specific Binding
T13 construct: purchased Eurofins Pharma Discovery Services (CEREP diversity panel)
T13 sequence (P06401 whole entry): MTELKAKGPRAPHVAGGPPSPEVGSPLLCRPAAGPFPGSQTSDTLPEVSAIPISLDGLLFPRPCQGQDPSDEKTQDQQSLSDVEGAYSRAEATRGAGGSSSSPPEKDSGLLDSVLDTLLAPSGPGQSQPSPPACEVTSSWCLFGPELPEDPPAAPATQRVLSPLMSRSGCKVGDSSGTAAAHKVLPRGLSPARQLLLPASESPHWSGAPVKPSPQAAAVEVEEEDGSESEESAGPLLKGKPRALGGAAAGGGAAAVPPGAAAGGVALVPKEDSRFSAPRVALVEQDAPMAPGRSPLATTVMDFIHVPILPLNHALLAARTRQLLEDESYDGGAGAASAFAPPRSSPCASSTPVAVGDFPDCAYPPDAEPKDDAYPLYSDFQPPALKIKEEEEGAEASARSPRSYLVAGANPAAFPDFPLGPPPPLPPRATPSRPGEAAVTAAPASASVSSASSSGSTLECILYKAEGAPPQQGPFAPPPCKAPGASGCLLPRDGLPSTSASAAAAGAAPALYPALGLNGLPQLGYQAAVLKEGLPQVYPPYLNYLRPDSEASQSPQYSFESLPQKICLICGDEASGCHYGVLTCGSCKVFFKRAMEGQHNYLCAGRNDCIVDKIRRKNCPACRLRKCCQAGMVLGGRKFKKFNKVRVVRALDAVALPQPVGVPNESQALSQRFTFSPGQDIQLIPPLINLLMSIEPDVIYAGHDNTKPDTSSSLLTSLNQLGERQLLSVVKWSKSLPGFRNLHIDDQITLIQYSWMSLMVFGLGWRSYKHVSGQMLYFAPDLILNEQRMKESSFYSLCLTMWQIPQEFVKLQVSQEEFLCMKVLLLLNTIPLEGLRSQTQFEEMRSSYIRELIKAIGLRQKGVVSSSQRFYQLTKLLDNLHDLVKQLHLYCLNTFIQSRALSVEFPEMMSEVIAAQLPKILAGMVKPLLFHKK

[5] = tested on: Ca2+ channel (L, diltiazem site) (benzothiazepines); assay: Cerep binding, antagonist radioligand; details: 5 µM
beta 1 (h) = target: T14, beta 1 (h) (Homo sapiens, UniProt P08588); assay: Cerep binding, agonist radioligand; details: read-out: % Inhibition of Control Specific Binding
T14 construct: purchased Eurofins Pharma Discovery Services (CEREP diversity panel)

AMPA = assay: Cerep binding, agonist radioligand; details: 5 µM
[6] = tested on: adenylyl cyclase (activator effect); assay: Cerep enzyme and cell-based assays; assay type: biochemical; details: 5 µM
IP (PGI2) (h) = target: T15, IP (PGI2) (h) (Homo sapiens, UniProt P43119); assay: Cerep binding, agonist radioligand; details: read-out: % Inhibition of Control Specific Binding
T15 construct: purchased Eurofins Pharma Discovery Services (CEREP diversity panel)
T15 sequence (P43119 whole entry): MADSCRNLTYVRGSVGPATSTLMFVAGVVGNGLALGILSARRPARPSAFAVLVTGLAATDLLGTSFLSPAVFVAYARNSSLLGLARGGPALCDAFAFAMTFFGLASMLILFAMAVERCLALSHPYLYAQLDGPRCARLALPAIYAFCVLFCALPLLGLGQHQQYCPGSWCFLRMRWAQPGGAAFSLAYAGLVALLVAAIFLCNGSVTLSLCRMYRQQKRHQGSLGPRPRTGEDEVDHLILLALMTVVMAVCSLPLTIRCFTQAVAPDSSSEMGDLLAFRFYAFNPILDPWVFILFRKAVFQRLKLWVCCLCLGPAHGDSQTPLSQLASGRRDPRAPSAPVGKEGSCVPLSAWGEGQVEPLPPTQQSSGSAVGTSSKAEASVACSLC

H2 (h) = target: T16, H2 (h) (Homo sapiens, UniProt P25021); assay: Cerep binding, antagonist radioligand; details: read-out: % Inhibition of Control Specific Binding
T16 construct: purchased Eurofins Pharma Discovery Services (CEREP diversity panel)

PDE2A1 (h) = target: T17, PDE2A1 (h) (Homo sapiens, UniProt O00408); assay: Cerep enzyme and cell-based assays; assay type: biochemical; details: read-out: % Inhibition of Control Values
T17 construct: Eurofins Pharma Discovery Services (CEREP diversity panel, outsourced assay)

PDE5 (h) (non-selective) = target: T18, PDE5 (h) (non-selective) (Homo sapiens, UniProt O76074); assay: Cerep enzyme and cell-based assays; assay type: biochemical; details: read-out: % Inhibition of Control Values
T18 construct: Eurofins Pharma Discovery Services (CEREP diversity panel, outsourced assay)

D4.4 (h) = target: T19, D4.4 (h) (Homo sapiens, UniProt P21917); assay: Cerep binding, antagonist radioligand; details: read-out: % Inhibition of Control Specific Binding
T19 construct: purchased Eurofins Pharma Discovery Services (CEREP diversity panel)
T19 sequence (P21917 whole entry): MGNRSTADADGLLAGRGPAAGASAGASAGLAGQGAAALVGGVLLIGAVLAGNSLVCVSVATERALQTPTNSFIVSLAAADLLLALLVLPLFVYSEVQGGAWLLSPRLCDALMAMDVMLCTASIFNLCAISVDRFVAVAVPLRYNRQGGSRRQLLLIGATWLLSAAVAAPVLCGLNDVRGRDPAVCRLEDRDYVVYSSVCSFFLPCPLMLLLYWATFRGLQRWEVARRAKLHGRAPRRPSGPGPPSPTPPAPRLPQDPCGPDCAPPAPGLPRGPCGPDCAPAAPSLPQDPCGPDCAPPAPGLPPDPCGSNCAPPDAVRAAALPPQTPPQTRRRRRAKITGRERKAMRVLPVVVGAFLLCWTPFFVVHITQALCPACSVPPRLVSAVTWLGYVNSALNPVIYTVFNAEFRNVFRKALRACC

CysLT1 (LTD4) (h) = target: T20, CysLT1 (LTD4) (h) (Homo sapiens, UniProt Q9Y271); assay: Cerep binding, agonist radioligand; details: read-out: % Inhibition of Control Specific Binding
T20 construct: purchased Eurofins Pharma Discovery Services (CEREP diversity panel)

NOP (ORL1) (h) = target: T21, NOP (ORL1) (h) (Homo sapiens, UniProt P41146); assay: Cerep binding, agonist radioligand; details: read-out: % Inhibition of Control Specific Binding
T21 construct: purchased Eurofins Pharma Discovery Services (CEREP diversity panel)

AT2 (h) = target: T22, AT2 (h) (Homo sapiens, UniProt P50052); assay: Cerep binding, agonist radioligand; details: read-out: % Inhibition of Control Specific Binding
T22 construct: purchased Eurofins Pharma Discovery Services (CEREP diversity panel)

CCK2 (CCKB) (h) = target: T23, CCK2 (CCKB) (h) (Homo sapiens, UniProt P32239); assay: Cerep binding, agonist radioligand; details: read-out: % Inhibition of Control Specific Binding
T23 construct: purchased Eurofins Pharma Discovery Services (CEREP diversity panel)

beta 2 (h) = target: T24, beta 2 (h) (Homo sapiens, UniProt P07550); assay: Cerep binding, agonist radioligand; details: read-out: % Inhibition of Control Specific Binding
T24 construct: purchased Eurofins Pharma Discovery Services (CEREP diversity panel)

5-HT (non-selective) = assay: Cerep binding, agonist radioligand; details: 5 µM
BLT1 (LTB4) (h) = target: T25, BLT1 (LTB4) (h) (Homo sapiens, UniProt Q15722); assay: Cerep binding, agonist radioligand; details: read-out: % Inhibition of Control Specific Binding
T25 construct: purchased Eurofins Pharma Discovery Services (CEREP diversity panel)

## Cc1ccc(-n2nc3c(=O)n(CCCC(=O)NCC(C)c4ccccc4)nc(C)c3c2C)cc1 (centres unmarked) [2k]
GABA (non-selective)
  % Inhibition of Control Specific Binding: -7%
ETB (h)
  inhibition at 5 µM: -12%
Panc-Tu-I cells; 24 μM
  onset of cell death after treatment: ~13 h
Panc-Tu-I cells; doses higher than 3 μM
  time after administration at which decreasing cell indices indicated cell death: ~30 h
A2A (h)
  inhibition at 5 µM: -6%
D3 (h)
  inhibition at 5 µM: 18%
D1 (h)
  inhibition at 5 µM: 2%
B2 (h)
  inhibition at 5 µM: -5%
[1]
  % Inhibition of Control Specific Binding: 3%
NMDA
  % Inhibition of Control Specific Binding: 1%
Dopamine transporter (h)
  inhibition at 5 µM: 17%
[2]
  % Inhibition of Control Specific Binding: -23%
MT1 (ML1A) (h)
  inhibition at 5 µM: 22%
GR (h)
  inhibition at 5 µM: -9%
S6P phosphorylation; 20 μM, longer incubation times (>3 h)
  S6P phosphorylation: further decreased
S6P phosphorylation
  EGF-induced S6P phosphorylation: reduced S6P phosphorylation
[3]
  inhibition at 5 µM: 6%
D2S (h)
  inhibition at 5 µM: -1%
KV channel
  % Inhibition of Control Specific Binding: -8%
A1 (h)
  inhibition at 5 µM: 0%
[4]
  inhibition at 5 µM: 18%
ETA (h)
  inhibition at 5 µM: -7%
M (non-selective)
  % Inhibition of Control Specific Binding: 21%
Na+ channel (site 2)
  % Inhibition of Control Specific Binding: 4%
PR (h)
  inhibition at 5 µM: 3%
[5]
  % Inhibition of Control Specific Binding: -4%
Beta 1 (h)
  inhibition at 5 µM: -1%
AMPA
  % Inhibition of Control Specific Binding: 2%
[6]
  % Inhibition of Control Values: 2%
IP (PGI2) (h)
  inhibition at 5 µM: -4%
H2 (h)
  inhibition at 5 µM: 5%
PDE2A1 (h)
  inhibition at 5 µM: 2%
PDE5 (h) (non-selective)
  inhibition at 5 µM: 3%
D4.4 (h)
  inhibition at 5 µM: 2%
CysLT1 (LTD4) (h)
  inhibition at 5 µM: 0%
NOP (ORL1) (h)
  inhibition at 5 µM: 6%
AT2 (h)
  inhibition at 5 µM: 10%
CCK2 (CCKB) (h)
  inhibition at 5 µM: -22%
Beta 2 (h)
  inhibition at 5 µM: 9%
5-HT (non-selective)
  % Inhibition of Control Specific Binding: -25%
BLT1 (LTB4) (h)
  inhibition at 5 µM: 16%

## c1ccc(Cn2c(-c3ccc(OC[C@H](C4CCNCC4)n4c(-c5ccccc5)nc5ccccc54)cc3)nc3ccccc32)cc1 [Deltarasin, reference compound]
GABA (non-selective)
  % Inhibition of Control Specific Binding: 14%
ETB (h)
  inhibition at 5 µM: 15%
Panc-Tu-I cells; 5 μM
  onset of detectable cell death post treatment: ~9 h
A2A (h)
  inhibition at 5 µM: 28%
D3 (h)
  inhibition at 5 µM: 93%
D1 (h)
  inhibition at 5 µM: 99%
B2 (h)
  inhibition at 5 µM: 10%
[1]
  % Inhibition of Control Specific Binding: 57%
NMDA
  % Inhibition of Control Specific Binding: 11%
Dopamine transporter (h)
  inhibition at 5 µM: 65%
[2]
  % Inhibition of Control Specific Binding: 54%
MT1 (ML1A) (h)
  inhibition at 5 µM: 28%
GR (h)
  inhibition at 5 µM: 40%
S6P phosphorylation
  EGF-induced S6P phosphorylation: reduced in both lines
[3]
  inhibition at 5 µM: 15%
D2S (h)
  inhibition at 5 µM: 98%
KV channel
  % Inhibition of Control Specific Binding: -2%
A1 (h)
  inhibition at 5 µM: 37%
[4]
  inhibition at 5 µM: 27%
ETA (h)
  inhibition at 5 µM: 2%
M (non-selective)
  % Inhibition of Control Specific Binding: 96%
Na+ channel (site 2)
  % Inhibition of Control Specific Binding: 83%
PR (h)
  inhibition at 5 µM: 41%
[5]
  % Inhibition of Control Specific Binding: 61%
Beta 1 (h)
  inhibition at 5 µM: 21%
AMPA
  % Inhibition of Control Specific Binding: 17%
[6]
  % Inhibition of Control Values: 2%
IP (PGI2) (h)
  inhibition at 5 µM: 8%
H2 (h)
  inhibition at 5 µM: 38%
PDE2A1 (h)
  inhibition at 5 µM: 3%
PDE5 (h) (non-selective)
  inhibition at 5 µM: 92%
D4.4 (h)
  inhibition at 5 µM: 0%
CysLT1 (LTD4) (h)
  inhibition at 5 µM: -5%
NOP (ORL1) (h)
  inhibition at 5 µM: 10%
AT2 (h)
  inhibition at 5 µM: 49%
CCK2 (CCKB) (h)
  inhibition at 5 µM: 29%
Beta 2 (h)
  inhibition at 5 µM: 7%
5-HT (non-selective)
  % Inhibition of Control Specific Binding: -1%
BLT1 (LTB4) (h)
  inhibition at 5 µM: 19%
